ChEMBL document CHEMBL3045091, “Synthesis and antimicrobial activities of some new 5-((3-(aryl)-1-phenyl-1H-pyrazol-4-yl)methylene)-3-phenylthiazolidine-2,4-diones” (2012)
≈ marks a conversion by molar mass, not a printed value. Calls of active or inactive are those of the source. No cut-off for these calls is given here.

System: Aspergillus flavus
Test: Antifungal activity against Aspergillus flavus after 7 days by poisoned food technique
Assay type: functional
Details: not given

Row | Compound | growth inhibition (GI) [%]
1 | O=C1S/C(=C\c2cn(-c3ccccc3)nc2-c2ccc(F)cc2)C(=O)N1c1ccccc1 | 55.5
2 | O=C1S/C(=C\c2cn(-c3ccccc3)nc2-c2ccc(Cl)cc2)C(=O)N1c1ccccc1 | 61.1
3 | O=C1S/C(=C\c2cn(-c3ccccc3)nc2-c2ccc(Br)cc2)C(=O)N1c1ccccc1 | 55.5
4 | O=C1S/C(=C\c2cn(-c3ccccc3)nc2-c2ccccc2)C(=O)N1c1ccccc1 | 50
5 | O=C1S/C(=C\c2cn(-c3ccccc3)nc2-c2cccs2)C(=O)N1c1ccccc1 | 33.3
6 | OC(Cn1cncn1)(Cn1cncn1)c1ccc(F)cc1F [FLUCONAZOLE] | 77.7
7 | Cc1ccc(-c2nn(-c3ccccc3)cc2/C=C2\SC(=O)N(c3ccccc3)C2=O)cc1 | 50
8 | O=C1S/C(=C\c2cn(-c3ccccc3)nc2-c2ccc(O)cc2)C(=O)N1c1ccccc1 | 44.4
9 | COc1ccc(-c2nn(-c3ccccc3)cc2/C=C2\SC(=O)N(c3ccccc3)C2=O)cc1 | 66.6
10 | O=C1S/C(=C\c2cn(-c3ccccc3)nc2-c2ccc([N+](=O)[O-])cc2)C(=O)N1c1ccccc1 | 61.1

System: Staphylococcus aureus
Test: Antibacterial activity against Staphylococcus aureus MTCC 96 after 24 hr by macro dilution tube method
Assay type: functional
Details: MTCC 96, 24 h

Row | Compound | MIC [µg/mL]
11 | O=C1S/C(=C\c2cn(-c3ccccc3)nc2-c2ccc(F)cc2)C(=O)N1c1ccccc1 | 128 (≈ 290 µM)
12 | O=C1S/C(=C\c2cn(-c3ccccc3)nc2-c2ccc(Cl)cc2)C(=O)N1c1ccccc1 | 64 (≈ 140 µM)
13 | O=C1S/C(=C\c2cn(-c3ccccc3)nc2-c2ccc(Br)cc2)C(=O)N1c1ccccc1 | 32 (≈ 63.7 µM)
14 | O=C1S/C(=C\c2cn(-c3ccccc3)nc2-c2ccccc2)C(=O)N1c1ccccc1 | 128 (≈ 302 µM)
15 | O=C1S/C(=C\c2cn(-c3ccccc3)nc2-c2cccs2)C(=O)N1c1ccccc1 | 32 (≈ 74.5 µM)
16 | Cc1ccc(-c2nn(-c3ccccc3)cc2/C=C2\SC(=O)N(c3ccccc3)C2=O)cc1 | 128 (≈ 293 µM)
17 | O=C1S/C(=C\c2cn(-c3ccccc3)nc2-c2ccc(O)cc2)C(=O)N1c1ccccc1 | 64 (≈ 146 µM)
18 | COc1ccc(-c2nn(-c3ccccc3)cc2/C=C2\SC(=O)N(c3ccccc3)C2=O)cc1 | 128 (≈ 282 µM)
19 | O=C(O)c1cn(C2CC2)c2cc(N3CCNCC3)c(F)cc2c1=O [CIPROFLOXACIN] | 5 (≈ 15.1 µM)
20 | O=C1S/C(=C\c2cn(-c3ccccc3)nc2-c2ccc([N+](=O)[O-])cc2)C(=O)N1c1ccccc1 | 64 (≈ 137 µM)

System: Bacillus subtilis
Test: Antibacterial activity against Bacillus subtilis MTCC 121 after 24 hr by macro dilution tube method
Assay type: functional
Details: MTCC 121, 24 h

Row | Compound | MIC [µg/mL]
21 | O=C1S/C(=C\c2cn(-c3ccccc3)nc2-c2ccc(F)cc2)C(=O)N1c1ccccc1 | 32 (≈ 72.5 µM)
22 | O=C1S/C(=C\c2cn(-c3ccccc3)nc2-c2ccc(Cl)cc2)C(=O)N1c1ccccc1 | 128 (≈ 280 µM)
23 | O=C1S/C(=C\c2cn(-c3ccccc3)nc2-c2ccc(Br)cc2)C(=O)N1c1ccccc1 | 32 (≈ 63.7 µM)
24 | O=C1S/C(=C\c2cn(-c3ccccc3)nc2-c2ccccc2)C(=O)N1c1ccccc1 | 64 (≈ 151 µM)
25 | O=C1S/C(=C\c2cn(-c3ccccc3)nc2-c2cccs2)C(=O)N1c1ccccc1 | 32 (≈ 74.5 µM)
26 | Cc1ccc(-c2nn(-c3ccccc3)cc2/C=C2\SC(=O)N(c3ccccc3)C2=O)cc1 | 64 (≈ 146 µM)
27 | O=C1S/C(=C\c2cn(-c3ccccc3)nc2-c2ccc(O)cc2)C(=O)N1c1ccccc1 | 128 (≈ 291 µM)
28 | COc1ccc(-c2nn(-c3ccccc3)cc2/C=C2\SC(=O)N(c3ccccc3)C2=O)cc1 | 128 (≈ 282 µM)
29 | O=C(O)c1cn(C2CC2)c2cc(N3CCNCC3)c(F)cc2c1=O [CIPROFLOXACIN] | 5 (≈ 15.1 µM)
30 | O=C1S/C(=C\c2cn(-c3ccccc3)nc2-c2ccc([N+](=O)[O-])cc2)C(=O)N1c1ccccc1 | 128 (≈ 273 µM)

System: Staphylococcus aureus
Test: Antibacterial activity against Staphylococcus aureus MTCC 96 at 4 mg/ml after 24 hr by agar well diffusion method
Assay type: functional
Details: MTCC 96, 24 h, read-out: DIZ

Row | Compound | zone of inhibition at 4000 µg/mL [mm]
31 | O=C1S/C(=C\c2cn(-c3ccccc3)nc2-c2ccc(F)cc2)C(=O)N1c1ccccc1 | 19.3
32 | O=C1S/C(=C\c2cn(-c3ccccc3)nc2-c2ccc(Cl)cc2)C(=O)N1c1ccccc1 | 20.6
33 | O=C1S/C(=C\c2cn(-c3ccccc3)nc2-c2ccc(Br)cc2)C(=O)N1c1ccccc1 | 21.6
34 | O=C1S/C(=C\c2cn(-c3ccccc3)nc2-c2ccccc2)C(=O)N1c1ccccc1 | 18.6
35 | O=C1S/C(=C\c2cn(-c3ccccc3)nc2-c2cccs2)C(=O)N1c1ccccc1 | 22.3
36 | Cc1ccc(-c2nn(-c3ccccc3)cc2/C=C2\SC(=O)N(c3ccccc3)C2=O)cc1 | 18.3
37 | O=C1S/C(=C\c2cn(-c3ccccc3)nc2-c2ccc(O)cc2)C(=O)N1c1ccccc1 | 20.3
38 | COc1ccc(-c2nn(-c3ccccc3)cc2/C=C2\SC(=O)N(c3ccccc3)C2=O)cc1 | 18.6
39 | O=C(O)c1cn(C2CC2)c2cc(N3CCNCC3)c(F)cc2c1=O [CIPROFLOXACIN] | 26
40 | O=C1S/C(=C\c2cn(-c3ccccc3)nc2-c2ccc([N+](=O)[O-])cc2)C(=O)N1c1ccccc1 | 20.6

System: Aspergillus niger
Test: Antifungal activity against Aspergillus niger after 7 days by poisoned food technique
Assay type: functional
Details: not given

Row | Compound | growth inhibition (GI) [%]
41 | O=C1S/C(=C\c2cn(-c3ccccc3)nc2-c2ccc(F)cc2)C(=O)N1c1ccccc1 | 55.5
42 | O=C1S/C(=C\c2cn(-c3ccccc3)nc2-c2ccc(Cl)cc2)C(=O)N1c1ccccc1 | 55.5
43 | O=C1S/C(=C\c2cn(-c3ccccc3)nc2-c2ccc(Br)cc2)C(=O)N1c1ccccc1 | 38.8
44 | O=C1S/C(=C\c2cn(-c3ccccc3)nc2-c2ccccc2)C(=O)N1c1ccccc1 | 55.5
45 | O=C1S/C(=C\c2cn(-c3ccccc3)nc2-c2cccs2)C(=O)N1c1ccccc1 | 50
46 | OC(Cn1cncn1)(Cn1cncn1)c1ccc(F)cc1F [FLUCONAZOLE] | 81.1
47 | Cc1ccc(-c2nn(-c3ccccc3)cc2/C=C2\SC(=O)N(c3ccccc3)C2=O)cc1 | 44.4
48 | O=C1S/C(=C\c2cn(-c3ccccc3)nc2-c2ccc(O)cc2)C(=O)N1c1ccccc1 | 50
49 | COc1ccc(-c2nn(-c3ccccc3)cc2/C=C2\SC(=O)N(c3ccccc3)C2=O)cc1 | 50
50 | O=C1S/C(=C\c2cn(-c3ccccc3)nc2-c2ccc([N+](=O)[O-])cc2)C(=O)N1c1ccccc1 | 50

System: Pseudomonas aeruginosa
Test: not given
Details: MTCC 741, 4 mg/ml

Row | Compound | DIZ
51 | O=C1S/C(=C\c2cn(-c3ccccc3)nc2-c2ccc(F)cc2)C(=O)N1c1ccccc1 | inactive
52 | O=C1S/C(=C\c2cn(-c3ccccc3)nc2-c2ccc(Cl)cc2)C(=O)N1c1ccccc1 | inactive
53 | O=C1S/C(=C\c2cn(-c3ccccc3)nc2-c2ccc(Br)cc2)C(=O)N1c1ccccc1 | inactive
54 | O=C1S/C(=C\c2cn(-c3ccccc3)nc2-c2ccccc2)C(=O)N1c1ccccc1 | inactive
55 | O=C1S/C(=C\c2cn(-c3ccccc3)nc2-c2cccs2)C(=O)N1c1ccccc1 | inactive
56 | Cc1ccc(-c2nn(-c3ccccc3)cc2/C=C2\SC(=O)N(c3ccccc3)C2=O)cc1 | inactive
57 | O=C1S/C(=C\c2cn(-c3ccccc3)nc2-c2ccc(O)cc2)C(=O)N1c1ccccc1 | inactive
58 | COc1ccc(-c2nn(-c3ccccc3)cc2/C=C2\SC(=O)N(c3ccccc3)C2=O)cc1 | inactive
59 | O=C1S/C(=C\c2cn(-c3ccccc3)nc2-c2ccc([N+](=O)[O-])cc2)C(=O)N1c1ccccc1 | inactive

System: Bacillus subtilis
Test: Antibacterial activity against Bacillus subtilis MTCC 121 at 4 mg/ml after 24 hr by agar well diffusion method
Assay type: functional
Details: MTCC 121, 24 h, read-out: DIZ

Row | Compound | zone of inhibition at 4000 µg/mL [mm]
60 | O=C1S/C(=C\c2cn(-c3ccccc3)nc2-c2ccc(F)cc2)C(=O)N1c1ccccc1 | 20.6
61 | O=C1S/C(=C\c2cn(-c3ccccc3)nc2-c2ccc(Cl)cc2)C(=O)N1c1ccccc1 | 18.3
62 | O=C1S/C(=C\c2cn(-c3ccccc3)nc2-c2ccc(Br)cc2)C(=O)N1c1ccccc1 | 20.6
63 | O=C1S/C(=C\c2cn(-c3ccccc3)nc2-c2ccccc2)C(=O)N1c1ccccc1 | 19.3
64 | O=C1S/C(=C\c2cn(-c3ccccc3)nc2-c2cccs2)C(=O)N1c1ccccc1 | 21.6
65 | Cc1ccc(-c2nn(-c3ccccc3)cc2/C=C2\SC(=O)N(c3ccccc3)C2=O)cc1 | 19.6
66 | O=C1S/C(=C\c2cn(-c3ccccc3)nc2-c2ccc(O)cc2)C(=O)N1c1ccccc1 | 18.3
67 | COc1ccc(-c2nn(-c3ccccc3)cc2/C=C2\SC(=O)N(c3ccccc3)C2=O)cc1 | 16.6
68 | O=C(O)c1cn(C2CC2)c2cc(N3CCNCC3)c(F)cc2c1=O [CIPROFLOXACIN] | 24
69 | O=C1S/C(=C\c2cn(-c3ccccc3)nc2-c2ccc([N+](=O)[O-])cc2)C(=O)N1c1ccccc1 | 18.3

System: Escherichia coli
Test: Antibacterial activity against Escherichia coli MTCC 1652 at 4 mg/ml after 24 hr by agar well diffusion method
Assay type: functional, organism-based
Details: not given

Row | Compound | diameter of the inhibition zone (DIZ)
70 | O=C1S/C(=C\c2cn(-c3ccccc3)nc2-c2ccc(F)cc2)C(=O)N1c1ccccc1 | inactive
71 | O=C1S/C(=C\c2cn(-c3ccccc3)nc2-c2ccc(Cl)cc2)C(=O)N1c1ccccc1 | inactive
72 | O=C1S/C(=C\c2cn(-c3ccccc3)nc2-c2ccc(Br)cc2)C(=O)N1c1ccccc1 | inactive
73 | O=C1S/C(=C\c2cn(-c3ccccc3)nc2-c2ccccc2)C(=O)N1c1ccccc1 | inactive
74 | O=C1S/C(=C\c2cn(-c3ccccc3)nc2-c2cccs2)C(=O)N1c1ccccc1 | inactive
75 | Cc1ccc(-c2nn(-c3ccccc3)cc2/C=C2\SC(=O)N(c3ccccc3)C2=O)cc1 | inactive
76 | O=C1S/C(=C\c2cn(-c3ccccc3)nc2-c2ccc(O)cc2)C(=O)N1c1ccccc1 | inactive
77 | COc1ccc(-c2nn(-c3ccccc3)cc2/C=C2\SC(=O)N(c3ccccc3)C2=O)cc1 | inactive
78 | O=C1S/C(=C\c2cn(-c3ccccc3)nc2-c2ccc([N+](=O)[O-])cc2)C(=O)N1c1ccccc1 | inactive

System: Pseudomonas aeruginosa
Test: microbe, parasite or virus in culture
Details: MTCC 741, 24 h, read-out: DIZ
Description: Antibacterial activity against Pseudomonas aeruginosa MTCC 741 at 4 mg/ml after 24 hr by agar well diffusion method

Row | Compound | zone of inhibition at 4000 µg/mL [mm]
79 | O=C(O)c1cn(C2CC2)c2cc(N3CCNCC3)c(F)cc2c1=O [CIPROFLOXACIN] | 22
